From EP1923473B1, “Bis-diglycolamides (BISDGA) as new extractants for lanthanides [Ln(III)] and actinides [An(III)] from aqueous high-level wastes” (Universidad Autónoma de Madrid, priority 2006, dated 2008)

Test: Batch extraction from simulated HLLW from the PUREX process
Assay type: physicochemical
Details: 0.1 mol/L in TPH/1-octanol (90:10)
Text: The feed solution used for the extraction tests is a simulated solution of an HLLW from the PUREX process, the composition of which is shown in Table 4. Table 4: Composition of the simulated HLLW-PUREX solution used for the extraction tests
The composition of the HLLW corresponds to a burn-up of 33 GWd/tHM, the generated volume of HLLW being 5000 1/t of fuel. The feed was spiked with ^241Am, ^244Cm, ^252Cf and ^152Eu. Oxalic acid and N-(2-hydroxyethyl)ethylenediaminotriacetate (HEDTA) were also added before the extraction tests.
500 µL of the aqueous and organic phases were spiked with 10 µL of a tracer solution containing 241Am, 244Cm, 252Cf and ^152Eu, and were equilibrated for 10 minutes while they were stirred vigorously in a vortex stirrer. After the separation of the phases by centrifugation, 200 µL aliquots of each phase were taken for the determination of the concentration of ^241Am and ^152Eu using a high-purity germanium spectrometer system (EG&G Ortec). The nuclides ^241Am, ^244Cm and ^252Cf were measured by alpha spectrometry with an α-Analyst device of the company Canberra-Packard GmbH, Germany.
The concentrations of the stable elements were determined by mass spectrometry with an inductively coupled plasma source (ICP-MS) in a DRC Elan 6100 device of Perkin Elmer Sciex. The aqueous phase was measured directly after the appropriate dilution. The organic phase was analyzed after having mineralized the organic matter by microwave acid digestion and subsequent dilution.
The distribution coefficients were calculated for each element according to section C).
A 0.1 mol/L solution of compound 4 in the "TPH/1-octanol (90:10)%vol" mixture was prepared. Extraction experiments were carried out with said simulated HLLW in a pure form and also adding oxalic acid and HEDTA to it. These complexing agents have shown to be effective in the DIAMEX process for the complexing of Mo, Zr (H2C2O4) and Pd (HEDTA).
Extraction experiments were carried out with said simulated HLLW in a pure form and also adding oxalic acid and HEDTA to it.

[1] = Oxalic acid 0.2 mol/L, HEDTA 0.05 mol/L, TBP 0.5 mol/L
[2] = Oxalic acid 0.2 mol/L, HEDTA 0.05 mol/L, TBP No
[3] = Oxalic acid 0.3 mol/L, HEDTA 0.05 mol/L, TBP 0.5 mol/L
[4] = Oxalic acid 0.3 mol/L, HEDTA 0.05 mol/L, TBP No
[5] = Oxalic acid No, HEDTA No, TBP 0.5 mol/L
[6] = Oxalic acid No, HEDTA No, TBP No

2-Dioctylcarbamoylmethoxy-N-[3-[3-(2-dioctylcarbamoyl-methoxyacetylamino)propoxy]propyl]acetamide [Compound 18]
Distribution coefficients Ag [1]: 0.19 | Distribution coefficients Ba [1]: 0.0008 | Distribution coefficients Cd [1]: 0.022 | Distribution coefficients Ce [1]: 20 | Distribution coefficients Cf-252 [1]: 666 | Distribution coefficients Cm-244 [1]: 95 | Distribution coefficients Cs [1]: 0.0005 | Distribution coefficients Eu [1]: 309 | Distribution coefficients Eu-152 [1]: 282 | Distribution coefficients Gd [1]: 140 | Distribution coefficients La [1]: 12 | Distribution coefficients Mo [1]: 0.15 | Distribution coefficients Nd [1]: 69 | Distribution coefficients Pd [1]: 0.05 | Distribution coefficients Pr [1]: 32 | Distribution coefficients Rb [1]: 0.008 | Distribution coefficients Rh [1]: 0.003 | Distribution coefficients Ru [1]: 0.22 | Distribution coefficients Sm [1]: 284 | Distribution coefficients Y [1]: 631 | Distribution coefficients Zr [1]: 0.18 | Distribution coefficients Ag [2]: 0.5 | Distribution coefficients Ba [2]: 0.0008 | Distribution coefficients Cd [2]: 0.032 | Distribution coefficients Ce [2]: 24 | Distribution coefficients Cf-252 [2]: 511 | Distribution coefficients Cm-244 [2]: 85 | Distribution coefficients Cs [2]: 0.0004 | Distribution coefficients Eu [2]: 341 | Distribution coefficients Eu-152 [2]: 523 | Distribution coefficients Gd [2]: 197 | Distribution coefficients La [2]: 12 | Distribution coefficients Mo [2]: 0.21 | Distribution coefficients Nd [2]: 101 | Distribution coefficients Pd [2]: 0.10 | Distribution coefficients Pr [2]: 44 | Distribution coefficients Rb [2]: 0.008 | Distribution coefficients Rh [2]: 0.004 | Distribution coefficients Ru [2]: 0.21 | Distribution coefficients Sm [2]: 432 | Distribution coefficients Y [2]: 618 | Distribution coefficients Zr [2]: 0.51 | Distribution coefficients Ag [3]: 0.08 | Distribution coefficients Ba [3]: 0.0008 | Distribution coefficients Cd [3]: 0.024 | Distribution coefficients Ce [3]: 22 | Distribution coefficients Cf-252 [3]: 1353 | Distribution coefficients Cm-244 [3]: 164 | Distribution coefficients Cs [3]: 0.0004 | Distribution coefficients Eu [3]: 335 | Distribution coefficients Eu-152 [3]: 330 | Distribution coefficients Gd [3]: 146 | Distribution coefficients La [3]: 12 | Distribution coefficients Mo [3]: 0.19 | Distribution coefficients Nd [3]: 78 | Distribution coefficients Pd [3]: 0.02 | Distribution coefficients Pr [3]: 35 | Distribution coefficients Rb [3]: 0.008 | Distribution coefficients Rh [3]: 0.003 | Distribution coefficients Ru [3]: 0.23 | Distribution coefficients Sm [3]: 363 | Distribution coefficients Y [3]: 811 | Distribution coefficients Zr [3]: 0.06 | Distribution coefficients Ag [4]: 0.14 | Distribution coefficients Ba [4]: 0.0008 | Distribution coefficients Cd [4]: 0.034 | Distribution coefficients Ce [4]: 24 | Distribution coefficients Cf-252 [4]: 1451 | Distribution coefficients Cm-244 [4]: 163 | Distribution coefficients Cs [4]: 0.0006 | Distribution coefficients Eu [4]: 275 | Distribution coefficients Eu-152 [4]: 436 | Distribution coefficients Gd [4]: 196 | Distribution coefficients La [4]: 12 | Distribution coefficients Mo [4]: 0.19 | Distribution coefficients Nd [4]: 97 | Distribution coefficients Pd [4]: 0.04 | Distribution coefficients Pr [4]: 43 | Distribution coefficients Rb [4]: 0.008 | Distribution coefficients Rh [4]: 0.003 | Distribution coefficients Ru [4]: 0.18 | Distribution coefficients Sm [4]: 331 | Distribution coefficients Y [4]: 455 | Distribution coefficients Zr [4]: 0.13 | Distribution coefficients Ag [5]: 6.8 | Distribution coefficients Ba [5]: 0.0008 | Distribution coefficients Cd [5]: 0.015 | Distribution coefficients Ce [5]: 14 | Distribution coefficients Cf-252 [5]: 605 | Distribution coefficients Cm-244 [5]: 102 | Distribution coefficients Cs [5]: 0.0004 | Distribution coefficients Eu [5]: 299 | Distribution coefficients Eu-152 [5]: 393 | Distribution coefficients Gd [5]: 126 | Distribution coefficients La [5]: 8.5 | Distribution coefficients Mo [5]: 0.06 | Distribution coefficients Nd [5]: 49 | Distribution coefficients Pd [5]: 2.2 | Distribution coefficients Pr [5]: 24 | Distribution coefficients Rb [5]: 0.008 | Distribution coefficients Rh [5]: 0.003 | Distribution coefficients Ru [5]: 0.28 | Distribution coefficients Sm [5]: 234 | Distribution coefficients Y [5]: 1119 | Distribution coefficients Zr [5]: 16.5 | Distribution coefficients Ag [6]: 5.8 | Distribution coefficients Ba [6]: 0.0008 | Distribution coefficients Cd [6]: 0.021 | Distribution coefficients Ce [6]: 17 | Distribution coefficients Cf-252 [6]: 1352 | Distribution coefficients Cm-244 [6]: 165 | Distribution coefficients Cs [6]: 0.0004 | Distribution coefficients Eu [6]: 267 | Distribution coefficients Eu-152 [6]: 499 | Distribution coefficients Gd [6]: 160 | Distribution coefficients La [6]: 10 | Distribution coefficients Mo [6]: 0.09 | Distribution coefficients Nd [6]: 74 | Distribution coefficients Pd [6]: 1.7 | Distribution coefficients Pr [6]: 32 | Distribution coefficients Rb [6]: 0.008 | Distribution coefficients Rh [6]: 0.004 | Distribution coefficients Ru [6]: 0.24 | Distribution coefficients Sm [6]: 266 | Distribution coefficients Y [6]: 574 | Distribution coefficients Zr [6]: 9.1
